Measurements from patent US7477053B2, “Detection of electromagnetic fields” (priority 1994, dated 2009).
“Also recorded” adds a separate entry of the source.

What follows are compounds tested on rat liver Microsomes (assay: Magnetometer detection of substrate metabolism by rat liver microsomes). Settings: NADPH-dependent.

| Structure (SMILES) | Metabolized by rat liver Microsomes |
| --- | --- |
| Cc1c(N(C)C)c(=O)n(-c2ccccc2)n1C [aminopyrine] | + |
| CN(C)CCC=C1c2ccccc2CCc2ccccc21 [amitryptyline] | + |
| Nc1ccccc1 [aniline] | + |
| C[C@]12CCC(=O)C=C1CC[C@@H]1[C@@H]2[C@@H](O)C[C@@]2(C)[C@H]1CC[C@]2(O)C(=O)CO [cortisol] | + |
| CNCCC(Oc1ccc(C(F)(F)F)cc1)c1ccccc1 (stereo not shown) [fluoxetine] | + |
| CC(=O)[C@H]1CC[C@H]2[C@@H]3CCC4=CC(=O)CC[C@]4(C)[C@H]3CC[C@]12C [progresterone, progesterone] | + |
| NCCCCN [putrescine] | + |
| C[C@]12CC[C@H]3[C@@H](CCC4=CC(=O)CC[C@@]43C)[C@@H]1CC[C@@H]2O [testosterone] | − |

Same assay, conditions: Non-NADPH-dependent

| Structure (SMILES) | Metabolized by rat liver Microsomes |
| --- | --- |
| Nc1ncnc2c1ncn2[C@@H]1O[C@H](CO)[C@@H](O)[C@H]1O [adenosine] | + |
| NCCc1c[nH]cn1 [histamine] | + |
| N[C@@H](Cc1c[nH]cn1)C(=O)O [histidine] | + |
| N[C@H](CO)Cc1c[nH]cn1 [histidinol] | + |

Same assay, conditions: rat liver microsomes 1 mg protein/ml, NADPH present

| Structure (SMILES) | Magnetometer chart response to substrate, RLM + NADPH |
| --- | --- |
| N[C@@H](Cc1c[nH]cn1)C(=O)O [histidine] | RLM + NADPH. Two response to HD, short latency in both. |
| NCCCCN [putrescine] | Increased slope |

Same assay, conditions: rat liver microsomes 1 mg protein/ml, NADPH present; listed as PU

| Structure (SMILES) | Magnetometer chart response to substrate, RLM + NADPH |
| --- | --- |
| NCCCCN [putrescine] | PU (10) NADPH (10) response seen at end of record; also recorded: Response to PU |

Same assay, conditions: rat liver microsomes 1 mg protein/ml, no NADPH stated

| Structure (SMILES) | Magnetometer chart response to substrate, RLM |
| --- | --- |
| Nc1ncnc2c1ncn2[C@@H]1O[C@H](CO)[C@@H](O)[C@H]1O [adenosine] | No further change in slope |
| N[C@@H](Cc1c[nH]cn1)C(=O)O [histidine] | Enhanced slope |

These compounds were tested on pig liver chromatin (assay: Magnetometer detection of substrate metabolism by pig liver chromatin). Settings: NADPH-dependent.

| Structure (SMILES) | Metabolized by pig liver chromatin |
| --- | --- |
| Cc1c(N(C)C)c(=O)n(-c2ccccc2)n1C [aminopyrine] | − |
| CN(C)CCC=C1c2ccccc2CCc2ccccc21 [amitryptyline] | + |
| Nc1ccccc1 [aniline] | − |
| C[C@]12CCC(=O)C=C1CC[C@@H]1[C@@H]2[C@@H](O)C[C@@]2(C)[C@H]1CC[C@]2(O)C(=O)CO [cortisol] | − |
| C[C@]12CC[C@@H]3c4ccc(O)cc4CC[C@H]3[C@@H]1CC[C@@H]2O [estridiol, β-estradiol] | − |
| NCCCCN [putrescine] | + |
| C[C@]12CC[C@H]3[C@@H](CCC4=CC(=O)CC[C@@]43C)[C@@H]1CC[C@@H]2O [testosterone] | + |

Same assay, conditions: Non-NADPH-dependent

| Structure (SMILES) | Metabolized by pig liver chromatin |
| --- | --- |
| NCCc1c[nH]cn1 [histamine] | + |
| N[C@@H](Cc1c[nH]cn1)C(=O)O [histidine] | ++ |
| N[C@H](CO)Cc1c[nH]cn1 [histidinol] | + |

Same assay, conditions: chromatin from pig liver nuclei 1 mg protein/ml, without NADPH; listed as HD

| Structure (SMILES) | Magnetometer chart response to substrate, CHROM |
| --- | --- |
| N[C@@H](Cc1c[nH]cn1)C(=O)O [histidine] | PBT (50) B 10 CHROM Response to HD; also recorded: PGT 100 CHROM (700) B. Response to HD |

Same assay, conditions: chromatin from pig liver nuclei, NADPH present

| Structure (SMILES) | Magnetometer chart response to substrate, CHROM in presence of NADPH |
| --- | --- |
| C[C@]12CC[C@H]3[C@@H](CCC4=CC(=O)CC[C@@]43C)[C@@H]1CC[C@@H]2O [testosterone] | CHROM. Response to TEST in presence of NADPH |

These compounds were tested on pig liver nuclei (assay: Magnetometer detection of substrate response in pig liver nuclei). Settings: pig liver nuclei 1 mg protein/ml, without NADPH.
Format: in vitro ADME

| Structure (SMILES) | Magnetometer chart response to substrate, PLN |
| --- | --- |
| N[C@@H](Cc1c[nH]cn1)C(=O)O [histidine] | PLN. Response to HD. |
| NCCCCN [putrescine] | PLN. No response to PUTR until NADPH added. |
